Measurements taken from patent publication US20140107109A1, “AMINO-DIHYDROTHIAZINE AND AMINO-DIOXIDO DIHYDROTHIAZINE COMPOUNDS AS BETA-SECRETASE ANTAGONISTS AND METHODS OF USE” (Amgen Inc., priority 2012, published 2014).
Where two headings read alike, the source gives them in different places.

Key:
[1] = system: Aβ40 in conditioned medium of cells stably expressing Amyloid Precursor Protein (APP); test: In vitro BACE cell-based assay (HEK cell assay), Aβ40 sandwich ELISA; details: Homo sapiens, HEK293
Procedure, shortened: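 Aβ40 in conditioned medium was quantified by time-resolved fluorescence sandwich ELISA (pAb40 capture 3 h at 4 °C, biotin-6E10 detection 2 h at 4 °C) after 24 h compound exposure of APP-expressing cells. Doses spanned 10 points from 100 μM or 10 μM top, 0.1% DMSO; IC50 was derived from percent of control.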

[2] = molecular target: Beta Secretase enzyme (BACE1) (Homo sapiens, UniProt P56817); test: In vitro enzymatic BACE FRET assay; format: biochemical
Procedure, shortened: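 Readout: dequenched fluorescence (ex 488 nm/[…]) after neutralizing with Tris buffer. Reactions, begun by adding 50 nM quenched peptide substrate spanning the BACE cleavage site, were incubated one hour at pH 4.2 in 0.05 M acetate with 100 uM genapol and 10% final DMSO.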

[3] = molecular target: T1, Cathepsin D (Cat D) (Homo sapiens, UniProt P07339); test: In vitro enzymatic Cathepsin D (Cat D) FRET assay; format: biochemical
T1 construct: Recombinant Cat D was expressed in CHO cells; made in house; host or cells: CHO cells
Procedure, shortened: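 FRET read-out: a fluorophore/quencher-labelled peptide substrate is cleaved by 9 nM Cat D (recombinant, CHO-expressed) following a one-hour preincubation with inhibitor dilutions in DMSO. Tris buffer added to neutralize pH ends the reaction before fluorescence measurement.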

[4] = average IC50, enzyme assay, read-out: BACE1 FRET assay IC50
[5] = average IC50, read-out: BACE1 FRET assay IC50

T1 sequence (P07339 65-412, species assumed): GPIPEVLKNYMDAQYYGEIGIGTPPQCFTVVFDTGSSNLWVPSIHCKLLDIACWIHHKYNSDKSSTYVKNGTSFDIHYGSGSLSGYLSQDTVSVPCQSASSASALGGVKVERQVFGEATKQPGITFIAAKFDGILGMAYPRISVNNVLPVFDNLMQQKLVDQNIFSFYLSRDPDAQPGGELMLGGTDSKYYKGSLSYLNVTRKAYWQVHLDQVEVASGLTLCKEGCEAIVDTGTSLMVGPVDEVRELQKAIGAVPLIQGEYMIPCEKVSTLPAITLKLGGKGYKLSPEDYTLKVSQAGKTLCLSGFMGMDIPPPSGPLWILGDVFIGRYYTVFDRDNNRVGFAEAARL
Sequence of Beta Secretase enzyme (BACE1) (P56817 46-501): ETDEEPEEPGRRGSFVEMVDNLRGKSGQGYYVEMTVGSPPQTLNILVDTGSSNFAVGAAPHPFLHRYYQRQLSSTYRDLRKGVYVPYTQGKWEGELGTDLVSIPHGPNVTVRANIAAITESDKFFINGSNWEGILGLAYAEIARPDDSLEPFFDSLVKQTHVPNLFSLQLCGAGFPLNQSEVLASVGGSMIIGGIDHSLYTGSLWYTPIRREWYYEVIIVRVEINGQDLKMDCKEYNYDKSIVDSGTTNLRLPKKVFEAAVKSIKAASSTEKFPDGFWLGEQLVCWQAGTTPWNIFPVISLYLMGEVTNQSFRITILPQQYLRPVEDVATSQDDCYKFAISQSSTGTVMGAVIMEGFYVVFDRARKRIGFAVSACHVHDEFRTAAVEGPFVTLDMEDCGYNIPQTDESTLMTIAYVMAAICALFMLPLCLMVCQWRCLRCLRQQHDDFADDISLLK

Row | Compound | IC50 ([1]; average IC50, cell assay) [nM] | IC50 [2, 4] [nM] | IC50 ([3]; read-out: CatD IC50) [nM] | IC50 [2] [nM] | IC50 ([1]; average IC50, HEK cells) [nM] | IC50 [2, 5] [nM] | IC50 [3] [nM] | IC50 ([1]; average IC50, HEK cell assay) [nM]
1 | CC1(C)C(N)=N[C@](C)(c2cc(Nc3nccc4cc(Cl)cnc34)ccc2F)[C@@H](F)S1(=O)=O [Example 168, (2S,3R)-5-amino-3-(5-((3-chloro-1,7-naphthyridin-8-yl)amino)-2-fluorophenyl)-2-fluoro-3,6,6-trimethyl-3,6-dihydro-2H-1,4-thiazine 1,1-dioxide] | 16.7 | 0.92 | 66800 |  |  |  |  | 
2 | CC1(C)C(N)=N[C@](C)(c2cc(Br)c[nH]c2=O)CS1(=O)=O [Example 169, (R)-3-(5-amino-3,6,6-trimethyl-1,1-dioxido-3,6-dihydro-2H-1,4-thiazin-3-yl)-5-bromopyridin-2(1H)-one] | > 15600 |  | > 400000 | 21100 |  |  |  | 
3 | COc1ncc(NC(=O)c2ccc(Cl)cn2)cc1[C@]1(C)CS(=O)(=O)C(C)(C)C(N)=N1 [Example 170, (R)—N-(5-(5-amino-3,6,6-trimethyl-1,1-dioxido-3,6-dihydro-2H-1,4-thiazin-3-yl)-6-methoxypyridin-3-yl)-5-chloropicolinamide] | 28.9 | 22.5 | 305000 |  |  |  |  | 
4 | Cc1cc(OC(F)F)cnc1C(=O)Nc1cc([C@]2(C)CS(=O)(=O)C(C)(C)C(N)=N2)c(=O)n(C)c1 [Example 171, (R)—N-(5-(5-amino-3,6,6-trimethyl-1,1-dioxido-3,6-dihydro-2H-1,4-thiazin-3-yl)-1-methyl-6-oxo-1,6-dihydropyridin-3-yl)-5-(difluoromethoxy)-3-methylpicolinamide] | 8.3 | 9.27 | 186000 |  |  |  |  | 
5 | NC1=N[C@](CF)(c2cc(Br)ccc2F)CS(=O)(=O)C12CCC2 [Example 172, (S)-9-amino-7-(5-bromo-2-fluorophenyl)-7-(fluoromethyl)-5-thia-8-azaspiro[3.5]non-8-ene 5,5-dioxide] |  |  | 45400 |  | > 15600 | 3560 |  | 
6 | CC1(C)C(N)=N[C@](C)(c2cc(C(=O)Nc3ccc(C#N)cc3O)ccc2F)CS1(=O)=O [Example 173, (R)-3-(5-amino-3,6,6-trimethyl-1,1-dioxido-3,6-dihydro-2H-1,4-thiazin-3-yl)-N-(4-cyano-2-hydroxyphenyl)-4-fluorobenzamide] | > 15600 | 2290 | 104000 |  |  |  |  | 
7 | C[C@]1(F)C(N)=N[C@](C)(c2cc(Nc3nccc4cc(Cl)cnc34)ccc2F)CS1(=O)=O [Example 174, (3R,6R)-5-Amino-3-(5-((3-chloro-1,7-naphthyridin-8-yl)amino)-2-fluorophenyl)-6-fluoro-3,6-dimethyl-3,6-dihydro-2H-1,4-thiazine 1,1-dioxide] | 119 | 0.33 | 101000 |  |  |  |  | 
8 | C[C@]1(F)C(N)=N[C@](C)(c2cc(Nc3ncnc4cc(Cl)cnc34)ccc2F)CS1(=O)=O [Example 175, (3R,6R)-5-Amino-3-((5-(7-chloropyrido[3,2-d]pyrimidin-4-yl)amino)-2-fluorophenyl)-6-fluoro-3,6-dimethyl-3,6-dihydro-2H-1,4-thiazine 1,1-dioxide] | 103 | 3.88 | 75800 |  |  |  |  | 
9 | COc1cnc(C(=O)Nc2ccc(F)c([C@]3(C)CS(=O)(=O)[C@](C)(F)C(N)=N3)c2)cn1 [Example 176] |  |  | 650000 |  | 254 | 2.8 |  | 
10 | COc1cnc2c(Nc3ccc(F)c([C@]4(C)CS(=O)(=O)[C@@](C)(F)C(N)=N4)c3)ncnc2c1 [Example 177, (3R,6R)-5-Amino-6-fluoro-3-(2-fluoro-5-((7-methoxypyrido[3,2-d]pyrimidin-4-yl)amino)phenyl)-3,6-dimethyl-3,6-dihydro-2H-1,4-thiazine 1,1-dioxide] | 78.2 | 2.68 | 175000 |  |  |  |  | 
11 | C[C@]1(F)C(N)=N[C@](C)(c2cc(Nc3ncc(F)c4cc(Cl)cnc34)ccc2F)CS1(=O)=O [Example 178, (3R,6R)-5-Amino-3-(5-((3-chloro-5-fluoro-1,7-naphthyridin-8-yl)amino)-2-fluorophenyl)-6-fluoro-3,6-dimethyl-3,6-dihydro-2H-1,4-thiazine 1,1-dioxide] |  |  | 32100 |  | 379 | 0.38 |  | 
12 | C[C@]1(F)C(N)=N[C@](C)(c2cc(Nc3ncc(F)c4cc(C#N)cnc34)ccc2F)CS1(=O)=O [Example 179, 8-((3-((3R,6R)-5-Amino-6-fluoro-3,6-dimethyl-1,1-dioxido-3,6-dihydro-2H-1,4-thiazin-3-yl)-4-fluorophenyl)amino)-5-fluoro-1,7-naphthyridine-3-carbonitrile] |  |  | > 44400 |  | 157 | 0.8 |  | 
13 | C[C@]1(F)C(N)=N[C@](C)(c2cc(Nc3ncnc4cc(C#N)cnc34)ccc2F)CS1(=O)=O [Example 180, 4-((3-((3R,6R)-5-Amino-6-fluoro-3,6-dimethyl-1,1-dioxido-3,6-dihydro-2H-1,4-thiazin-3-yl)-4-fluorophenyl)amino)pyrido[3,2-d]pyrimidine-7-carbonitrile] | 89.4 | 1.1 | 65500 |  |  |  |  | 
14 | Cc1nc(F)c([C@]2(C)CS(=O)(=O)C(C)(C)C(N)=N2)cc1Br [Example 184, (R)-5-Amino-3-(5-bromo-2-fluoro-6-methylpyridin-3-yl)-3,6,6-trimethyl-3,6-dihydro-2H-1,4-thiazine 1,1-dioxide] | 3990 | 8110 |  |  |  |  | 127000 | 
15 | Cc1cc(Cl)cnc1C(=O)Nc1cnc(F)c([C@]2(C)CS(=O)(=O)C3(CC3)C(N)=N2)c1 [Example 186, (R)—N-(5-(8-amino-6-methyl-4,4-dioxido-4-thia-7-azaspiro[2.5]oct-7-en-6-yl)-6-fluoropyridin-3-yl)-5-chloro-3-methylpicolinamide] |  |  | 65700 |  | 4.3 | 2.4 |  | 
16 | CC1(C)C(N)=N[C@](C)(c2cc(Br)ccc2F)C2(CC2)S1(=O)=O [Example 187] |  |  | > 400000 |  | > 15600 | 30700 |  | 
17 | CC1(C)C(N)=N[C@](C)(c2cc(Nc3ncc(Br)c4cc(Cl)cnc34)ccc2F)CS1(=O)=O [Example 188, (R)-5-amino-3-(5-((5-bromo-3-chloro-1,7-naphthyridin-8-yl)amino)-2-fluorophenyl)-3,6,6-trimethyl-3,6-dihydro-2H-1,4-thiazine 1,1-dioxide] | 59.7 | 0.83 | 213000 |  |  |  |  | 
18 | CC1(C)C(N)=N[C@](C)(c2cc(Nc3ncc(C#C[Si](C)(C)C)c4cc(Cl)cnc34)ccc2F)CS1(=O)=O [Example 189, (R)-5-amino-3-(5-((3-chloro-5-((trimethylsilyl)ethynyl)-1,7-naphthyridin-8-yl)amino)-2-fluorophenyl)-3,6,6-trimethyl-3,6-dihydro-2H-1,4-thiazine 1,1-dioxide] | 231 | 6.8 | > 4940 |  |  |  |  | 
19 | C#Cc1cnc(Nc2ccc(F)c([C@]3(C)CS(=O)(=O)C(C)(C)C(N)=N3)c2)c2ncc(Cl)cc12 [Example 190, (R)-5-amino-3-(5-((3-chloro-5-ethynyl-1,7-naphthyridin-8-yl)amino)-2-fluorophenyl)-3,6,6-trimethyl-3,6-dihydro-2H-1,4-thiazine 1,1-dioxide] | 44.8 | 1.3 | 63900 |  |  |  |  | 
20 | CC1(C)C(N)=N[C@](C)(c2cc(Nc3ncc(CO)c4cc(Cl)cnc34)ccc2F)CS1(=O)=O [Example 191, (R)-5-amino-3-(5-((3-chloro-5-(hydroxymethyl)-1,7-naphthyridin-8-yl)-amino)-2-fluorophenyl)-3,6,6-trimethyl-3,6-dihydro-2H-1,4-thiazine 1,1-dioxide] | 8.9 | 4.47 | 65000 |  |  |  |  | 
21 | CC1(C)C(N)=N[C@](C)(c2cc(Nc3ncc(Cl)c4cc(Cl)cnc34)ccc2F)CS1(=O)=O [Example 192, (R)-5-amino-3-(5-((3,5-dichloro-1,7-naphthyridin-8-yl)amino)-2-fluorophenyl)-3,6,6-trimethyl-3,6-dihydro-2H-1,4-thiazine 1,1-dioxide] | 36.6 | 0.7 | 32400 |  |  |  |  | 
22 | CC1(C)C(N)=N[C@](CF)(c2cc(NC(=O)c3ccc(Cl)cn3)ccc2F)CS1(=O)=O [Example 193, (S)—N-(3-(5-amino-3-(fluoromethyl)-6,6-dimethyl-1,1-dioxido-3,6-dihydro-2H-1,4-thiazin-3-yl)-4-fluorophenyl)-5-chloropicolinamide] |  |  | 228000 |  | 16.1 | 0.76 |  | 
23 | C=C(C)c1cc(Cl)cnc1C(=O)Nc1ccc(F)c([C@]2(C)CS(=O)(=O)C(C)(C)C(N)=N2)c1 [Example 194, (R)—N-(3-(5-amino-3,6,6-trimethyl-1,1-dioxido-3,6-dihydro-2H-1,4-thiazin-3-yl)-4-fluorophenyl)-5-chloro-3-(prop-1-en-2-yl)picolinamide] |  | 5.18 | 617000 |  |  |  |  | 3.42
24 | C=Cc1cc(Cl)cnc1C(=O)Nc1ccc(F)c([C@]2(C)CS(=O)(=O)C(C)(C)C(N)=N2)c1 [Example 195, (R)—N-(3-(5-amino-3,6,6-trimethyl-1,1-dioxido-3,6-dihydro-2H-1,4-thiazin-3-yl)-4-fluorophenyl)-5-chloro-3-vinylpicolinamide] |  | 0.59 | 108000 |  |  |  |  | 3.9
